Results published in patent US6117886A, “Tetrazole derivatives” (Kowa Co., Ltd., priority 1997, dated 2000).
Where a name gives a salt, the structure may show the parent alone.

What was measured:
[1] = tested on: guinea pig ileum, contraction induced with LTD4; assay: Antileukotriene action, in vitro test on isolated ileum (contraction induced with LTD4); details: contraction induced with 10^-8 M LTD4; 29° C; read-out: Anti-LTD4 action IC50
H1 Receptor = biological target: T1, H1 Receptor (Cavia porcellus, UniProt P31389); assay: H1 Receptor Binding Inhibitory Test; design: species or system guinea pig
T1 construct: guinea pig cerebral membrane protein; from tissue; host or cells: guinea pig cerebral membranes
T1 sequence (P31389 whole entry): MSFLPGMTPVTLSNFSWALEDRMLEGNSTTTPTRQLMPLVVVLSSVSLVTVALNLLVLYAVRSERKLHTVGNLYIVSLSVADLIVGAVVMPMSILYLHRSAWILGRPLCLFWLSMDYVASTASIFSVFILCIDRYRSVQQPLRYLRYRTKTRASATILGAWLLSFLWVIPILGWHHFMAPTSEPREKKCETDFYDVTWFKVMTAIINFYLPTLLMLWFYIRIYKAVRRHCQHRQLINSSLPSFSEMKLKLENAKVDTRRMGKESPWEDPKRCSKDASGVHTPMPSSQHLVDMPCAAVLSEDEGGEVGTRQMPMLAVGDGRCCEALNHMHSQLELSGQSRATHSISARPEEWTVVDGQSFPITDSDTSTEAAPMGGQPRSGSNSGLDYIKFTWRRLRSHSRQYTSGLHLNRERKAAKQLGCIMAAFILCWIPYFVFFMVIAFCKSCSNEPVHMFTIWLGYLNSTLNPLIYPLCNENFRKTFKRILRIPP
Procedure: Reaction was stopped by addition of ice-cold phosphate buffer, and immediately thereafter, the reaction mixture was filtered by use of a Wattman CF/C filter. The filter was washed twice, each time with 20 ml ice-cold buffer. Radioactivity of the residue was measured by use of a liquid scintillation counter. From the value as obtained when a test compound was not added and values as obtained when the test compound was added at different concentrations, there was determined a dose-response curve representing suppression action of the test compound, from which a 50% inhibitory concentration (IC50) was obtained. Based on the IC50 value and by use of the Cheng-Prusoff equation, a dissociation constant (KD) was calculated (Table 9). In a saturation test, 10^-4 M R(-)-dimetindene was used for the measurement of the amount of non-specific binding.

[2] = biological target: guinea pig ileum, contraction in response to histamine (Cavia porcellus, UniProt P31389); assay: Antihistaminic action, in vitro test on isolated ileum (contraction in response to histamine); details: 10^-8 to 10^-4 M histamine dose-response curve, 30 min after test compound, 29° C; for Kb: read-out: Anti-histaminic action, pA2 (converted)
Chain of guinea pig ileum, contraction in response to histamine (P31389 whole entry): as above

LTD4 Receptor = biological target: T2, LTD4 Receptor (Cavia porcellus, UniProt Q2NNR5); assay: LTD4 Receptor Binding Inhibitory Test; design: species or system guinea pig
T2 construct: guinea pig lung protein; from tissue; host or cells: guinea pig lung
T2 sequence (Q2NNR5 1-340): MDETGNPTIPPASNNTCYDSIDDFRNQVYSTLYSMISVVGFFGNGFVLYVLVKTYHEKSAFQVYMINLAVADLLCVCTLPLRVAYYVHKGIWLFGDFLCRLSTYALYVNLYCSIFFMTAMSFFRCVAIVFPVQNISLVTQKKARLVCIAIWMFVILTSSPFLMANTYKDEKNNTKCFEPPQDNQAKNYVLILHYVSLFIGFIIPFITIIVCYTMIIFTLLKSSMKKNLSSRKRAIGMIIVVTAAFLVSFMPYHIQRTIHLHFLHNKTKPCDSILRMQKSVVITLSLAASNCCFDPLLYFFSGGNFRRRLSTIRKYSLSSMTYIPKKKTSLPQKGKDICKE
Procedure: Reaction was stopped by addition of ice-cold Tris-HCl/NaCl (10 mM/100 mM, pH 7.5) buffer, and immediately thereafter, the reaction mixture was filtered by use of a Wattman CF/C filter. The filter was washed twice, each time with 20 ml ice-cold buffer. Radioactivity of the residue was measured by use of a liquid scintillation counter. […] In a saturation test, 2 μM leukotriene D4 was used for the measurement of the amount of non-specific binding.

IC50 [1] | Kd (H1 Receptor) | Anti-histaminic action, pD'2 [2] | Kd (LTD4 Receptor) | Kb [2] | Structure (SMILES)
0.09 µM | 2.96 µM | 5.53 | 0.114 µM |  | COc1ccc2[nH]c(=O)c(-c3nnn(Cc4cccc(OCc5ccc6ccccc6n5)c4)n3)cc2c1 [Example 1, 6-methoxy-3-{2-[3-(2-quinolylmethoxy)benzyl]tetrazolyl}quinolin-2-one]
0.25 µM |  |  |  | 4.17 µM | COc1ccc2[nH]c(=O)c(-c3nnnn3Cc3cccc(OCc4ccc5ccccc5n4)c3)cc2c1 [Example 2, 6-methoxy-3-{1-[3-(2-quinolylmethoxy)benzyl]tetrazolyl}quinolin-2-one]
1.1 µM | 3.29 µM |  | 8.11 µM | 0.0407 µM | CCOCCn1c(COc2ccc(Cn3nnc(-c4cc5cc(OC)ccc5[nH]c4=O)n3)cc2)nc2ccccc21 [Example 6, 3-{2-{4-[N-(2-Ethoxyethyl)benzimidazol-2-ylmethoxy]benzyl}tetrazolyl}-6-methoxyquinolin-2-one]
 | 9.38 µM |  | 0.143 µM |  | Cn1c(COc2cccc(Cn3nnc(-c4cc5ccccc5[nH]c4=O)n3)c2)nc2ccccc21 [Example 8, 3-{2-[3-(N-Methylbenzimidazol-2-ylmethoxy)benzyl]tetrazolyl}quinolin-2-one]
 | 13.7 µM |  | 0.32 µM |  | Cn1c(COc2cccc(Cn3nnnc3-c3cc4ccccc4[nH]c3=O)c2)nc2ccccc21 [Example 9, 3-{1-[3-(N-Methylbenzimidazol-2-ylmethoxy)benzyl]tetrazolyl}quinolin-2-one]
 | 22.8 µM |  | 0.509 µM |  | CC(C)(C)c1ccc2[nH]c(=O)c(-c3nnnn3Cc3cccc(OCc4ccc5ccccc5n4)c3)cc2c1 [Example 18, 6-tert-Butyl-3-{1-[3-(2-quinolylmethoxy)-benzyl]tetrazolyl}quinolin-2-one]
 | 30.1 µM |  | 0.364 µM |  | O=c1[nH]c2ccc(O)cc2cc1-c1nnn(Cc2ccc(OCc3ccc4ccccc4n3)cc2)n1 [Example 22, 6-Hydroxy-3-{2-[4-(2-quinolylmethoxy)benzyl]-tetrazolyl}quinolin-2-one]
 | 9.51 µM |  | 0.205 µM |  | COc1ccc2[nH]c(=O)c(-c3nnn(Cc4ccc(OCc5ccc6ccccc6n5)cc4)n3)cc2c1 [Example 24, 6-Methoxy-3-{2-[4-(2-quinolylmethoxy)benzyl]-tetrazolyl}quinolin-2-one]
 | 13.9 µM |  | 0.00586 µM |  | COc1ccc2[nH]c(=O)c(-c3nnnn3Cc3ccc(OCc4ccc5ccccc5n4)cc3)cc2c1 [Example 25, 6-Methoxy-3-{1-[4-(2-quinolylmethoxy)benzyl]-tetrazolyl}quinolin-2-one]
0.179 µM | 89.5 µM | 5.24 | 0.179 µM |  | O=c1[nH]c2ccccc2cc1-c1nnn(Cc2cccc(OCc3ccc4ccccc4n3)c2)n1 [Example 26, 3-{2-[3-(2-Quinolylmethoxy)benzyl]-tetrazolyl}quinolin-2-one]
 | 13.9 µM |  | 0.021 µM |  | O=c1[nH]c2ccc(O)cc2cc1-c1nnn(Cc2cccc(OCc3ccc4ccccc4n3)c2)n1 [Example 28, 6-Hydroxy-3-{2-[3-(2-quinolylmethoxy)benzyl]-tetrazolyl}quinolin-2-one]
 | 57.2 µM |  | 0.0136 µM |  | O=c1[nH]c2ccc(O)cc2cc1-c1nnnn1Cc1cccc(OCc2ccc3ccccc3n2)c1 [Example 29, 6-Hydroxy-3-{1-[3-(2-quinolylmethoxy)benzyl]-tetrazolyl}quinolin-2-one]
0.16 µM |  | 5.52 |  |  | COc1ccc2c(c1)cc(-c1nnn(Cc3cccc(OCc4ccc5ccccc5n4)c3)n1)c(=O)n2C [Example 38, 6-methoxy-1-methyl-3-{2-[3-(2-quinolylmethoxy)benzyl]tetrazolyl}quinolin-2-one]
 |  |  |  | 0.0302 µM | CN(C)CCn1c(=O)c(-c2nnn(Cc3cccc(OCc4ccc5ccccc5n4)c3)n2)cc2cc(O)ccc21 [Example 39, 1-Dimethylaminoethyl-6-hydroxy-3-{2-[3-(2-quinolylmethoxy)benzyl]tetrazolyl}quinolin-2-one]
 |  |  |  | 0.251 µM | CN(C)CCn1c(=O)c(-c2nnnn2Cc2cccc(OCc3ccc4ccccc4n3)c2)cc2cc(O)ccc21 [Example 40, 1-Dimethylaminoethyl-6-hydroxy-3-{1-[3-(2-quinolylmethoxy)benzyl]tetrazolyl}quinolin-2-one]
 |  | 5.58 |  |  | COc1ccc2c(c1)cc(-c1nnn(Cc3cccc(OCc4ccc5ccccc5n4)c3)n1)c(=O)n2CCN(C)C [Example 41, 1-Dimethylaminoethyl-6-methoxy-3-{2-[3-(2-quinolylmethoxy)benzyl]tetrazolyl}quinolin-2-one]
 |  |  |  | 0.055 µM | CN(C)CCCn1c(=O)c(-c2nnn(Cc3cccc(OCc4ccc5ccccc5n4)c3)n2)cc2cc(O)ccc21 [Example 42, 1-Dimethylaminopropyl-6-hydroxy-3-{2-[3-(2-quinolylmethoxy)benzyl]tetrazolyl}quinolin-2-one]
 |  |  |  | 0.174 µM | CN(C)CCn1c(=O)c(-c2nnn(Cc3cccc(C=Cc4ccc5ccccc5n4)c3)n2)cc2cc(O)ccc21 [Example 43, 1-Dimethylaminoethyl-6-hydroxy-3-{2-[3-(2-quinolylethenyl)benzyl]tetrazolyl}quinolin-2-one]
0.64 µM |  |  |  | 0.0219 µM | COc1ccc2c(c1)cc(-c1nnn(Cc3cccc(OCc4ccc5ccccc5n4)c3)n1)c(=O)n2CCCN1CCN(Cc2ccc3ccccc3n2)CC1 [Example 45, 1-{3-[4-(2-quinolylmethyl)-1-piperazinyl]propyl}-6-methoxy-3-(2-[3-(2-quinolylmethoxy)benzyl]tetrazolyl)quinolin-2-one dihydrochloride]
 |  |  |  | 0.02 µM | COc1ccc2c(c1)cc(-c1nnn(Cc3cccc(OCc4ccc5ccccc5n4)c3)n1)c(=O)n2CCCCN1CCN(Cc2ccc3ccccc3n2)CC1 [Example 47, 6-Methoxy-1-{4-[4-(2-quinolylmethyl)-piperazinyl]butyl}-3-{2-[3-(2-quinolylmethoxy)benzyl]tetrazolyl}quinolin-2-one dimalate]
 |  |  |  | 0.115 µM | COc1ccc2c(c1)cc(-c1nnn(Cc3cccc(OCc4ccc5ccccc5n4)c3)n1)c(=O)n2CCCN1CCN(Cc2ccccn2)CC1 [Example 48, 6-Methoxy-1-{3-[4-(2-pyridylmethyl)-piperazinyl]propyl}-3-{2-[3-(2-quinolylmethoxy)benzyl]tetrazolyl}quinolin-2-one dihydrochloride]
1.3 µM |  |  |  | 0.912 µM | CN1CCN(CCCOc2ccc3c(c2)cc(-c2nnn(Cc4cccc(OCc5ccc6ccccc6n5)c4)n2)c(=O)n3C)CC1 [Example 52, 1-methyl-6-[3-(4-metylpiperazinyl)propyl]oxy-3-{2-[3-(2-quinolylmethoxy)benzyl]tetrazolyl}quinolin-2-one trihydrochloride]
 | 61.9 µM |  | 0.0221 µM |  | NCC(=O)Oc1ccc2[nH]c(=O)c(-c3nnn(Cc4cccc(OCc5ccc6ccccc6n5)c4)n3)cc2c1 [Example 64, 6-Glycyloxy-3-{2-[3-(2-quinolylmethoxy)-benzyl]tetrazolyl}quinolin-2-one]

Structure (SMILES) | IC50 [1] | Kd (H1 Receptor) | Anti-histaminic action, pD'2 [2] | Kd (LTD4 Receptor) | Kb [2]
CC(=O)Oc1ccc2[nH]c(=O)c(-c3nnn(Cc4ccc(OCc5ccc6ccccc6n5)cc4)n3)cc2c1 [Example 56, 6-Acetoxy-3-{2-[4-(2-quinolylmethoxy)benzyl]-tetrazolyl}quinolin-2-one] |  | 84.7 µM |  | 0.336 µM | 
CC(=O)Oc1ccc2[nH]c(=O)c(-c3nnn(Cc4cccc(OCc5ccc6ccccc6n5)c4)n3)cc2c1 [Example 58, 6-Acetoxy-3-{2-[3-(2-quinolylmethoxy)benzyl]-tetrazolyl}quinolin-2-one] |  | 480 µM |  | 0.0382 µM | 
